Data: PubChem BioAssay (NCI)
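Values below derive from 48-hour exposures of cells grown in 96-well plates, with endpoints linearly interpolated between the two concentrations bracketing the appropriate inhibition level. TGI marks complete inhibition of growth.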

Legend:
Experiment in all cases: DTP human tumour cell line panel, 48 h
OVCAR-8 ovarian = test system: OVCAR-8 ovarian
MDA-MB-231 breast = test system: MDA-MB-231 breast
BT-549 breast = test system: BT-549 breast
K-562 leukemia = test system: K-562 leukemia
SK-MEL-2 melanoma = test system: SK-MEL-2 melanoma
SW-620 colon = test system: SW-620 colon
EKVX NSCLC = test system: EKVX NSCLC
LOX IMVI melanoma = test system: LOX IMVI melanoma
HOP-92 NSCLC = test system: HOP-92 NSCLC
HT29 colon = test system: HT29 colon
SF-295 CNS = test system: SF-295 CNS
786-0 renal = test system: 786-0 renal
TK-10 renal = test system: TK-10 renal
CAKI-1 renal = test system: CAKI-1 renal
SK-MEL-28 melanoma = test system: SK-MEL-28 melanoma
COLO 205 colon = test system: COLO 205 colon
SF-268 CNS = test system: SF-268 CNS
HCT-116 colon = test system: HCT-116 colon
KM12 colon = test system: KM12 colon
SNB-19 CNS = test system: SNB-19 CNS

Structure (SMILES)	TGI (OVCAR-8 ovarian) [µM]	TGI (MDA-MB-231 breast) [µM]	TGI (BT-549 breast) [µM]	TGI (K-562 leukemia) [µM]	TGI (SK-MEL-2 melanoma) [µM]	TGI (SW-620 colon) [µM]	TGI (EKVX NSCLC) [µM]	TGI (LOX IMVI melanoma) [µM]	TGI (HOP-92 NSCLC) [µM]	TGI (HT29 colon) [µM]	TGI (SF-295 CNS) [µM]	TGI (786-0 renal) [µM]	TGI (TK-10 renal) [µM]	TGI (CAKI-1 renal) [µM]	TGI (SK-MEL-28 melanoma) [µM]	TGI (COLO 205 colon) [µM]	TGI (SF-268 CNS) [µM]	TGI (HCT-116 colon) [µM]	TGI (KM12 colon) [µM]	TGI (SNB-19 CNS) [µM]
COC(=O)C(Cc1c(C2Nc3ccccc3C2CC(NC(C)=O)C(=O)OC)[nH]c2ccccc12)NC(C)=O (stereo not given)	> 100	> 100	> 100	> 100	> 100	> 100	> 100	> 100	> 100	> 100	> 100	> 100	> 100	> 100	> 100	> 100	> 100	> 100	> 100	> 100
CC1=NN(C(=O)CC(=O)Nc2cccc(C)c2)C(=O)C1N=Nc1ccc(S(=O)(=O)c2ccc(N=NC3C(=O)N(C(=O)CC(=O)Nc4cccc(C)c4)N=C3C)cc2)cc1 (stereo not given)	> 100	> 100	> 100	> 100	> 100	> 100	> 100	> 100	> 100	> 100	> 100	> 100	> 100	> 100	> 100	> 100	> 100	> 100	> 100	> 100
CC1(C)CCCCCCC2CC2CCCCCC(C)(C)C1=O (stereo not given)	> 100	> 100	> 100	98.1	> 100	> 100	> 100	63.6	> 100	> 100	> 100	> 100	> 100	> 100	> 100	> 100	> 100	> 100	> 100	> 100
COc1ccc2c(c1)CCN1CCCc3ccc(OC)cc3C21 (stereo not given)	> 100	> 100	89.3	> 100	> 100	> 100	> 100	> 100	> 100	> 100	> 100	> 100	> 100	> 100	> 100	> 100	> 100	> 100	> 100	> 100
C=C(C)[C@H]1C[C@@H]2O[C@@](O)(/C(C)=C\C(=O)/C=C(/C)C[C@H]3OC(=O)[C@@]24O[C@H]34)[C@@H]1O	> 100	> 100	> 100	> 100	> 100	> 100	> 100	> 100	> 100	> 100	> 100	> 100	> 100	> 100	> 100	> 100	> 100	> 100	> 100	> 100
COc1cc2c(cc1OC)-c1c(oc3cc(OC4OC(CO)C(O)C(O)C4O)c(OC)cc3c1=O)C(O)O2 (stereo not given)	> 100	> 100	> 100	> 100	> 100	> 100	> 100	> 100	> 100	> 100	> 100	> 100	> 100	> 100	> 100	> 100	> 100	> 100	> 100	> 100
CC(C)(C)C1(O)C=C(O)C(=O)N1NC(=O)c1ccccc1Nc1ccccc1 (stereo not given)	> 100	> 100	> 100	> 100	> 100	> 100	> 100	> 100	> 100	> 100	> 100	> 100	> 100	> 100	> 100	> 100	> 100	> 100	> 100	> 100
COC(=O)C1(Cc2cccc(C)c2)Cc2c(C)cccc2C1=O (stereo not given)	> 100	> 100	> 100	> 100	> 100	> 100	> 100	> 100	> 100	89.7	> 100	> 100	> 100	> 100	> 100	> 100	> 100	> 100	> 100	> 100
COc1cc(C2S/C(=C/c3ccccc3)C(=O)N2c2cc(Cl)c(Cl)cc2Cl)cc(OC)c1OC (stereo not given)	> 100	> 100	> 74.4	> 78.3	> 100	> 100	> 88.6	> 79.3	> 74.6	> 100	> 100	> 100	> 100	> 87.1	> 100	> 100	> 100	> 75	> 78.3	> 100
O=C1N=NC(=O)N1c1cc(C(F)(F)F)cc(C(F)(F)F)c1	13.7	6.55	12.9	32.9	5.57	> 45.6	33.2	11.7	8.25	8.1	9.49	17	> 42.8	10.2	44.3	3.35	17.3	12.2	18.2	> 40.8
C[C@]12CC[C@H]3[C@@H](CCC4=CC(=O)CC[C@@]43C)[C@@H]1CC[C@@H]2C(=O)Nc1ccc([N+](=O)[O-])c(C(F)(F)F)c1	90.9	43.4	35.6	73.7	33.2	37.6	27.8	30.5	58.2	32.1	31.7	31.2	35.3	35.9	37.4	36.7	36.5	32.2	36.4	36.8
CCOC(=O)N1CCN(c2nc(C)n(-c3ccccc3)c(=S)c2C#N)CC1	> 100	> 84.3	> 100	> 100	> 100	> 100	> 100	> 100	> 100	> 100	> 100	> 100	> 100	> 100	> 100	> 100	> 100	> 100	> 100	> 100
Clc1ccc(C2=C(c3ccccc3)C(c3ccc(Cl)cc3)N3C(=N[C@H]4CCCC[C@@H]43)N2)cc1 (stereo not given in full)	29.5	29.8	28.6	7.98	29.9	20.6	24.8	25.4	21.4	11.7	23.8	27.8	22.3	30.1	26.5	19.4	44.8	14.7	23.5	27.6
CCC1c2[nH]c3ccccc3c2C[C@H]2C(=O)NC(CCCCNC(=O)OC(C)(C)C)C(=O)N12 (stereo not given in full)	> 100	99.4	58.2	> 100	57.8	> 100	> 100	54.7	94.4	99.3	62.4	81.3	> 100	70.4	> 100	66.9	> 100	94.4	44.7	> 100
Cc1ccc2c(c1)C(C1Cc3cccc(C)c3C1=O)OC2=O (stereo not given)	> 100	> 100	> 100	> 100	> 100	> 100	> 100	> 100	> 100	> 100	> 100	> 100	> 100	> 100	> 100	> 100	> 100	> 100	> 100	> 100
O=[N+]([O-])C(=C(N1CCCCC1)N1CCCCC1)/C(Cl)=C(\Cl)[N+](=O)[O-]	23.2	14.8	19	> 100	35.1	28.7	30	5.13	6.6	12.5	46	10.2	10.1	2.83	37.3	11.5	25.4	7.54	41.7	36
CC(=O)NC1C(OC2C(CO)OC(OCC3OC(n4ccc(N)nc4=O)C(O)C3O)C(NC(C)=O)C2O)OC(CO)C(O)C1O (stereo not given)	> 100	> 100	> 100	> 100	> 100	> 100	> 100	> 100	> 100	> 100	> 100	> 100	> 100	> 100	> 100	> 100	> 100	> 100	> 100	> 100
CCOC(=O)c1[nH]cc(C)c1-c1c[nH]c2ccccc12	> 100	> 58.9	93.8	> 80.4	> 93	> 100	> 100	40.2	> 74.4	> 82.6	> 93	> 100	> 80.3	> 100	> 100	58.9	> 100	> 53.2	> 100	> 100
C=C(C)[C@@H]1CCC2=C[C@H](OC2=O)[C@@]2(C)C[C@@H]2C(=O)/C=C(/C)C(=O)[C@H]1OC(C)=O	> 68.6	> 100	27.4	> 32.2	> 80.1	> 44.6	> 49.8	41.3	> 93.3	> 48.4	> 100	30.3	> 62.7	42	52.9	45.3	> 72.6	20.3	42	> 73.7
CCCC(=O)NC(C(=O)OCC)(N1CCOCC1)C(F)(F)F (stereo not given)	> 100	> 100	> 100	> 100	> 100	> 100	> 100	> 100	> 100	> 100	> 100	> 100	> 100	> 100	> 100	> 100	> 100	> 100	> 100	> 100
